From patent US6468977B1, “Thiadiazole compounds useful as inhibitors of cysteine activity dependent enzymes” (Apotex Inc., priority 1998, dated 2002)
pKi: −log10 of the molar value. Structures can show the parent of a compound that is named as a salt.

Legend:
Cathepsin B = molecular target: T1, Cathepsin B (Homo sapiens, UniProt P07858); assay: Inhibition of cathepsin B, enzyme inactivation kinetics; assay type: biochemical; conditions: 25° C.; for k3 / kinact/KI / k3/Ki (second order rate of inhibition): pH 6.0; for pKi: pH 6.0, substrate N-Cbz-Phe-Arg 7-amido-4-methylcoumarin 100 μM; for kinact/KI: read-out: k3/Ki (second order rate of inhibition)
T1 construct: purchased Athens Research and Technology, Inc
Experimental: Enzyme assays and kinetic measurements.
Enzyme regeneration. Cathepsin B (Athens Research and Technology, Inc.) was regenerated by incubation with 2.5 mM dithioerythritol, 2.5 mM EDTA and 0.005% (v/v) Brij-35 in 50 mM potassium phosphate pH 6.0 for 5 min. at 25° C. The excess of dithioerythritol was removed by size exclusion chromatography on a NAP-10 column (Pharmacia) equilibrated with 20 mM sodium acetate pH 5.0 containing 10 mM EDTA. Enzyme activated in this way was used within several hours.
Measurement of inactivation constants:
The reactions were incubated at 25° C. […] The reaction progress curves were recorded continuously over five half-lives. […] Briefly, the reaction progress curves were analyzed by non-linear regression to the exponential equation (2) and pseudo-first order rate coefficients (kapp.) were calculated for each inhibitor concentration. [drawing 36] Fluorescence=Ae^−k^app.^t+B (2)
Second order rate for inhibition (ki/Ki), ki and Ki were determined from equation (3) by plotting (I/kapp.) vs. [I]; [formula]
where Km is the Michaelis-Menten constant, [I] is inhibitor concentration and [S] is substrate concentration.

[1] = system: IL-1 induced proteoglycan degradation of articular cartilage; assay: IL-1-induced proteoglycan degradation of articular cartilage explants in vitro; assay type: cell-based, calf; conditions: 1×10^−6 M, IL-1 50 ng/ml, 72 h, p=0.023
Experimental: The effect of Apo501 on IL-1 (interleukin) induced proteoglycan degradation of articular cartilage from normal calf joints was investigated in-vitro. Articular cartilage was sliced aseptically from the distal forelimb joints of less than 6-month old calves. […] The pooled, punched cartilage was washed and incubated in 20 ml of Ham's F12 medium with 5% FBS and 3% antibiotics for 72 hr at 37° C. for recovery.
Recovered explants were washed and replaced with a fresh medium. 20 μl (10 μCi/ml) of sodium [^35S] sulfate was added and cartilage explants incubated for 72 h at 37° C. to radiolabel proteoglycans. The explants was washed thoroughly (5 times) to remove free radioisotope and incubated in serum free, F-12 medium (3% Ab) overnight. Explants were then incubated in quadruplicate in fresh, serum free mediums containing varied concentrations of Apo-501 (10^−7, 10^−6, 10^−5, and 10^−4) for 24 h. […] The extent of proteoglycan degradation in each cartilage treated with different concentrations of Apo501 was determined by measuring the radioactivity of [^35S] sulfate-glycosaminoglycans by a liquid scintillation counter. Sample of 100 μl medium was added to 5 ml of scintillation cocktail (Ready Safe, Beckmann) and counted. Proteoglycan degradation was expressed as radiolabelled glycosaminoglycans released into the media (counts per min per ml) per dry weight (mg) of cartilage.

Transglutaminase = assay: Inhibition of transglutaminase, hydroxamate procedure, residual activity; assay type: biochemical; conditions: 100 μM (0.1 mM, 10% MeOH), one hour of incubation
Experimental: Inhibition of transglutaminase by compounds of formula I (Enzyme Assay).
Transglutaminase activity is measured by the […] hydroxamate procedure (J. Biol. Chem., 1971, 246, 1093). The tested compounds were dissolved in methanol and added to a buffered solution of purified Transglutaminase to give a final concentration of 0.1 mM (10% MeOH). After on hour of incubation, the solution was assayed for residual activity using the standard activity assay.

| melting point [°C] | k3 (Cathepsin B) [s⁻¹] | pKi (Cathepsin B) | kinact/KI (Cathepsin B) [M⁻¹ s⁻¹] | k3/Ki (second order rate of inhibition) (Cathepsin B) [M⁻¹ s⁻¹] | Inhibition of the enzyme (residual activity) (Transglutaminase) | Compound | Reduction of IL-1-induced degradation of newly synthesized proteoglycan [1] [%] |
| --- | --- | --- | --- | --- | --- | --- | --- |
| 89 to 92 |  |  |  |  |  | COc1nsc(N[C@@H](CC(C)C)C(=O)N2CCC[C@H]2C(=O)O)n1 [Example 11A, N-(3-methoxy-[1,2,4]thiadiazol-5-yl)-L-leucyl-L-proline] |  |
| 129 to 130 |  |  |  |  |  | CC[C@H](C)[C@H](Nc1nc(OC)ns1)C(=O)N1CCC[C@H]1C(=O)OC [Example 12A, N-(3-methoxy-[1,2,4]thiadiazol-5-yl)-L-iso-leucyl-L-proline methyl ester] |  |
| 112 to 114 |  |  |  |  |  | CC[C@H](C)[C@H](Nc1nc(OC)ns1)C(=O)N1CCC[C@H]1C(=O)O [Example 13, N-(3-methoxy-[1,2,4]thiadiazol-5-yl)-L-iso-leucyl-L-proline] |  |
| 132 to 134 |  |  |  |  |  | CC[C@H](C)[C@H](Nc1nc(C(=O)c2ccccc2)ns1)C(=O)N1CCC[C@H]1C(=O)O [Example 16, N-[3-benzoyl-[1,2,4]thiadiazol-5-yl]-L-iso-leucyl-L-proline] |  |
|  | 0.013 | 4.13 | 175 |  |  | CC(C)C[C@H](Nc1nc(-c2ccccc2)ns1)C(=O)N1CCC[C@H]1C(=O)O [apo5O9, N-(3-Phenyl-[1,2,4]thiadiazol-5-yl)-L-leucyl-L-proline] |  |
|  | 0.013 | 4.68 |  | 658 |  | COc1nsc(NC(=O)[C@H](Cc2ccccc2)NC(=O)OCc2ccccc2)n1 [apo201, 3-methoxy-5-(N-carbobenzyloxy-L-phenylalaninamido)-[1,2,4]thiadiazole] |  |
|  | 0.089 | 3.52 | 293 |  |  | CC(C)CC(Nc1nc(C(=O)O)ns1)C(=O)N1CCCC1C(=O)O (stereo not shown) [apo310] |  |
|  | 0.015 | 5.59 | 5630 |  |  | COc1nsc(N[C@@H](CC(C)C)C(=O)N2CCC[C@H]2C(=O)O)n1 [apo501, N-{(3-methoxy)-[1,2,4]thiadiazol-5-yl}-L-leucyl-L-proline. tris(hydroxymethyl)methylamine salt] | 60 |
| 161 to 162 | 0.032 | 4.43 | 864 |  | completely inhibits | COc1nsc(NC(=O)[C@H](C)NC(=O)[C@H](Cc2ccccc2)NC(=O)OCc2ccccc2)n1 [apo504, 3-methoxy-5-(N-carbobenzyloxy-L-phenylalanyl-L-alaninamido)-[1,2,4]thiadiazole] |  |
|  | 0.026 | 3.35 | 55 |  |  | Cc1nsc(N[C@@H](CC(C)C)C(=O)N2CCC[C@H]2C(=O)O)n1 [apo510, N-(3-Methyl-[1,2,4]thiadiazol-5-yl)-L-leucyl-L-proline] |  |
|  | 0.032 | 3.44 |  | 84 |  | COc1nsc(NC(=O)NC(CC(C)C)C(=O)NCCC(C)C)n1 (stereo not shown) [apo1073, 5-{3-methoxy-1,2,4-thiadiazolyl}carbamoyl-leucyl isoamylamide] |  |

| Compound | melting point [°C] | k3 (Cathepsin B) [s⁻¹] | pKi (Cathepsin B) | kinact/KI (Cathepsin B) [M⁻¹ s⁻¹] | k3/Ki (second order rate of inhibition) (Cathepsin B) [M⁻¹ s⁻¹] | Inhibition of the enzyme (residual activity) (Transglutaminase) | Reduction of IL-1-induced degradation of newly synthesized proteoglycan [1] [%] |
| --- | --- | --- | --- | --- | --- | --- | --- |
| COc1nsc(NC(=O)N[C@@H](CC(C)C)C(=O)N2CCC[C@H]2C(=O)O)n1 [apo503] |  | 0.014 | 3.41 |  | 36 |  |  |
